Measured values as given in patent US20240252552A1, “LIPOTEICHOIC ACID FROM STAPHYLOCOCCUS EPIDERMIDIS AND ITS USE TO MODULATE NEURONAL ACTIVITY VIA PD-1 INHIBITORY SIGNALLING IN NEURONS” (Northwestern University, priority 2023, published 2024).
“Also recorded” adds a separate entry of the source.

What was measured:
PD-1 = PD-1 expression in ex vivo dorsal root ganglion culture (immunofluorescence, qPCR); assay type: cell-based; conditions: ex vivo DRG, MMG11 + SELTA, TLR2 blockade
Excerpt: FIGS. 5A, 5B, 5C, 5D, and 5E. […] Scale bars=10 μm. (B) Distribution of intensity of PD-1 immunoreactivity in DRG based on the size of individual neurons in control (upper) and SELTA treatment (bottom). […] For all quantification analysis, a two-way ANOVA was used. *P<0.05, **P<0.01, #P<0.05. n=3 to 4 per group.
SELTA elevated PD-1 expression in primary sensory neurons. The inventor next examined PD-1 expression in the primary afferent neurons following direct exposure to SELTA. The inventor performed an ex vivo dorsal root ganglion (DRG) culture using DRG isolated at the levels of L2 to S1. Following 24-hour co-culture with SELTA, the expression of PD-1 was probed using immunofluorescence followed by confocal microscopy (FIG. 5A). To ascertain the cellular distribution of increased PD-1 expression, ImageJ analyses-based on individual cells were done and presented as the function of PD-1 immunoreactivity intensity to the cell size (FIG. 5B). Quantification was based on cell size-differential average fluorescence intensity (FIG. 5C). […] To further understand the expression of PD-1, immunoreactive intensities were normalized to the neuronal marker Neu-N (FIG. 5D). Changes were largely similar to FIG. 5C. The inventor next sought to examine whether the SELTA receptor TLR2 was involved in the modulation of PD-1 expression by SELTA. […]

[1] = tested on: trigeminal ganglion (TG) neurons; experiment: Real-time Ca2+ imaging (fura-2 AM) of ATP-stimulated TG neuronal cultures; assay type: cell-based, C57Bl/6 mice; conditions: TG neurons preincubated with MMG11
Excerpt: FIG. 8. […] Analysis with Student's t test, p<0.0001.
SELTA-induced inhibition of Ca^2+ influx is reversed by neutralizing PD-1. In the transduction of nociceptive signal, Ca^2+ influx through voltage-gated Ca^2+ channels is critical for neurotransmitter release and synaptic transmission (12-14). To investigate whether intracellular Ca^2+ dynamics in the afferents are affected by SELTA (8, 15), the inventor established in vitro trigeminal ganglion (TG) neuronal cultures from adult C57Bl/6 mice and performed real-time Ca^2+ imaging using fura-2 AM (FIG. 8). Cells were pretreated with vehicle or SELTA prior to stimulation with 20 uM ATP. TLR2 specificity of these effects were examined by using MMG11, a TLR2-specific antagonist (10) and PD-1 requirement was examined by pre-incubation with an anti-PD-1 antibody (16).

For `CCOC(=O)c1ccc(CC(=O)c2ccc(O)c(O)c2O)o1` [MMG11], the “effect on SELTA-induced PD-1 mRNA expression (qPCR)” value (PD-1) was “abrogated the elevation in PD-1 expression” and the “effect of TLR2 blockade on SELTA-mediated inhibition of Ca2+ influx” value [1] was “abrogated the SELTA mediated inhibition of Ca^2+ influx; also recorded: reverses SELTA-induced reduction of Ca2+ influx”.
